Assays:
Assay type in all cases: cell-based, human
[1] = system: Keloid fibroblast (KF) cells (CRL1762); experiment: Example 3: phalloidin / DAPI staining of keloid fibroblasts, 20,000 cells per well; settings: 16 hours
Method: (§1) Keloid fibroblast (KF) cells (CRL1762) and normal skin fibroblasts (NF, CRL2439) were both purchased from the American Type Culture Collection (ATCC, Manassas, Va.). This assay compared the effects of KC7F2 versus the glycolytic inhibitor 2-DG on the cellular consequences of HIF-1 functional blockade.
For each human skin fibroblast, 20,000 cells, were plated per well. Each well was treated and incubated for 16 hours with the following: Control, no chemical treatment; 40 μM KC7F2; 10 mM 2-deoxyglucose (2-DG), a glycolysis inhibitor; and both 40 μM KC7F2 and 10 mM 2-DG. Cells were stained with phalloidin for filamentous actin and cells were labelled DAPI (4′,6-diamidino-2-phenylindolepropridium iodide) to indicate dying cells. Images were taken at a magnification of 4 times (4×) and 10 times (10×).

[2] = system: Keloid fibroblast (KF) cells (CRL1762); experiment: Example 1: Hoechst / propidium iodide staining of keloid fibroblasts after 16 h treatment; settings: for number of KF cells: 40 μM KC7F2, 25 uM IDF-11774, 25 uM PX-478, 10 mM 2-DG, compared to control untreated cells, FIGS. 4A-B
[3] = system: Keloid fibroblast (KF) cells (CRL1762); experiment: Example 2: phalloidin / DAPI staining of keloid fibroblasts, 10,000 cells per well; settings: 16 hours
Method: as §1
For each human skin fibroblast, 10,000 cells were plated per well. Each well was treated and incubated for 16 hours with the following: Control, no chemical treatment; 40 μM KC7F2; 10 mM 2-deoxyglucose (2-DG), a glycolysis inhibitor; and both 40 μM KC7F2 and 10 mM 2-DG. Cells were stained with phalloidin for filamentous actin and cells were labelled DAPI (4′,6-diamidino-2-phenylindolepropridium iodide) to indicate dying cells. Images were taken at a magnification of 4 times (4×) and 10 times (10×).

In the case of `O=CC[C@@H](O)[C@H](O)[C@H](O)CO` [2-DG, 2-deoxyglucose], the proliferation ([1]; 10 mM 2-DG alone) is reported as “insufficient to impede proliferation to an appreciable amount”, the proliferation ([2]; 10 mM 2-DG alone) is reported as “insufficient to impede proliferation to an appreciable amount” and the proliferation ([3]; 10 mM 2-DG alone) is reported as “insufficient to impede proliferation to an appreciable amount”.

`CN1CCN(C(=O)COc2ccc(C34CC5CC(CC(C5)C3)C4)cc2)CC1` [IDF-11774, 2-(4-((3r,5r,7r)-adamantan-1-yl)phenoxy)-1-(4-methylpiperazin-1-yl)ethan-1-one] was tested, and the “number of KF cells” value [2] was “worked less well, but showed the same trend”.

`O=S(=O)(NCCSSCCNS(=O)(=O)c1cc(Cl)ccc1Cl)c1cc(Cl)ccc1Cl` [KC7F2] was tested, and the “number of KF cells” value ([1]; 40 μM KC7F2, FIGS. 7A, 8A) was “reduced the number of KF cells consistently and the best”, the “number of KF cells” value [2] was “reduced the number of KF cells consistently and the best” and the “number of KF cells” value ([3]; 40 μM KC7F2, FIGS. 5A, 6A) was “reduced the number of KF cells consistently and the best”.
